Measurements as given in patent US20100247564A1, “METHODS AND COMPOSITIONS FOR THE USE OF SARGASSUM FUSIFORME FOR THE INHIBITION OF HIV-1 INFECTION” (priority 2007, published 2010).
Entries after “also recorded” stand apart in the source; their conditions may differ. Like-named read-outs stand apart in the source and are kept apart here.

Tests used:
X4-tropic NL4-3 [1] = tested on: X4-tropic NL4-3
ectocervix tissue = assay: Ectocervix tissue viability, MTT assay; type: cell-based, human; conditions: day 10 after infection, PA-treated compared to untreated tissue
[2] = tested on: R5-tropic primary isolate ADA
X4-tropic NL4-3 [3] = assay: GHOST X4/R5 cell infection with X4-tropic NL4-3, flow cytometry; type: cell-based, HIV-1; conditions: for infected cells: 20% at 0 μM
sCD4 [4] = target: T1, sCD4 (Homo sapiens, UniProt P01730); assay: Saturation transfer difference NMR (STD-NMR) binding to sCD4; conditions: NMR buffer with 20% d6-DMSO, room temperature
T1 construct: soluble CD4 (sCD4) protein; purchased Progenics Pharmaceuticals
Method: FIGS. 15A-E show in vitro binding experiments of sCD4 with PA. FIG. 15A is a homonuclear NMR spectrum of 100 μM PA in the NMR buffer (10 mM KPO4 buffer, pH 7.0, 20% d6-DMSO, and 80% D2O). […] Tryptophan fluorescence was measured using an excitation wavelength of 280 nm. An increase of PA causes a red shift of 2 nm and quenching of the tryptophan fluorescence of sCD4.
We used a one-dimensional saturation transfer difference NMR (STD-NMR) experiment to characterize the binding of PA to sCD4 in vitro. […]
To perform the STD-NMR experiment, we used commercially available sCD4 (200 μg, 4.4 nmol, Progenics Pharmaceuticals), which was exchanged into the NMR buffer (160 μl of D2O and 40 μl d6-DMSO, containing 10 mM KPO4 buffer, pH 7.0). […] The NMR data were processed and analyzed using Topspin 2.0 (Bruker).
During the STD-NMR experiment, we titrated increasing concentrations of PA into sCD4 solution, and observed PA binding to sCD4, as shown by an increase in the intensity of the ligand STD-NMR signal (FIGS. 15A and 15B). The intensity of the STD signal was quantified by calculating the difference between the intensity of one signal in the off-resonance NMR spectrum, or reference NMR spectrum (I0), and the intensity of a signal in the on-resonance NMR spectrum (Isat) for various concentrations of the ligand (FIG. 15C). […]

sCD4 [5] = target: T1, sCD4; assay: sCD4 tryptophan fluorescence titration; type: binding
Method: The tryptophan fluorescence of sCD4 was used to estimate binding affinity of PA to sCD4. Measurements were performed on a Fluorolog-3 fluorescence spectrophotometer (Horiba Jobin Yvon) at 25° in a 1-ml stirred cuvette. For fluorescence titration experiments, 2 μM of sCD4 (Progenics Pharmaceuticals) dissolved in the NMR buffer was used, and a 1 mM solution of PA dissolved in the NMR buffer was added in 1 μM steps. Titrations in the absence of sCD4 were performed as a reference. Tryptophan fluorescence was measured using an excitation wavelength of 290 nm. The fluorescence emission signal was subtracted from the signal of the reference titrations, and the differences adjusted by the dilution factor were plotted against the final concentration of added PA. Curve fitting (OriginLab) was performed to find the best values for the Kd using a single-site binding isotherm approximation.

HIV-1 R5 BaL = assay: HIV-1 BaL infection of human ectocervix tissue ex vivo, p24 ELISA; conditions: for HIV-1 replication (p24): 100 μM PA; for HIV-1 infection reduced: 200 μM PA; for inhibition at 100 µM: Human immunodeficiency virus 1, BAL, in Homo sapiens, read-out: inhibition of HIV-1 infection
Method: Ectocervix tissue samples from premenopausal women were directly cultured in a non-polarized manner in 48-well plates in 300 μl/well DMEM/F 12 media for 10 days. […] Tissue was washed 3 times and returned to culture with each respective treatment for the duration of the experiment. At the indicated time points, HIV-1 replication was tested by p24 ELISA, and a two-tailed Student's t-test with p<0.05 was used to calculate statistical significance.
Ectocervix tissue samples (3-mm^3 biopsy) from premenopausal women with conditions not involving cervix were obtained in accordance with AMC approved Institutional Review Board (IRB) protocol, and were processed within 1-3 hours after surgery. Tissue was cultured in a non-polarized manner in 48-well plates in 300 μl/well DMEM/F12 media (Invitrogen) supplemented with 10% FBS for the duration of the experiment. Tissue was treated with the indicated concentrations of PA and infected with HIV-1 R5 BaL at 0.3 MOI.
Before infection, cells or cervix tissue were incubated for the indicated time in culture media with different concentrations of either PA. Cells or tissue were then washed 3 times with HBSS (Invitrogen), and infected with HIV-1 at the indicated MOI. Infected cells or tissue were washed 3 times, and returned to culture with the same concentration of each treatment for the duration of experiment. Infection was monitored in cell-free supernatants by HIV-1 p24 core antigen content accumulation by enzyme-linked immunosorbent assay (ELISA) using an HIV-1 Ag kit, as specified by the manufacturer.

[6] = tested on: cell fusion (anti-HIV activity); assay: Inhibition of cell fusion by individual fatty acids; type: cell-based; conditions: Human immunodeficiency virus 1, read-out: percentage of inhibition of cell fusion
Method: Anti-HIV activity of the individual fatty acids was tested at four different concentrations. The values given in Table 1 represent the percentage of inhibition of cell fusion in the presence of each fatty acid.

BlaM-Vpr-X4-tropic NL4-3 = assay: microbe, parasite or virus in culture; type: cell-based, HIV-1; conditions: for virus-positive cells: 37.6% untreated
uninfected macrophages = assay: Toxicity (LD50) on uninfected macrophages; type: cell-based, human
uninfected PBMCs = assay: Toxicity (LD50) on uninfected PBMCs; type: cell-based, human
NL4-3 = assay: MAGI cell assay with sCD4; type: cell-based, HIV-1; conditions: increasing concentrations of PA with 200 nM sCD4
R5-tropic 81A = assay: GHOST X4/R5 cell infection with R5-tropic 81A, flow cytometry; type: cell-based, HIV-1; conditions: for infected cells: 52.5% at 0 μM
[7] = saturating concentrations of PA
[8] = Human immunodeficiency virus 1, NL43, SUP-T1, read-out: inhibition of HIV-1 fusion
[9] = Human immunodeficiency virus 1, read-out: inhibition of infection (R5)

CCCCCCCCCCCCCCCC(=O)O [PA, palmitic acid]
IC50 (X4-tropic NL4-3 [1]; Human immunodeficiency virus 1, NL43, PBMC, 144 h): ~0.9 µM | inhibition of virus replication (X4-tropic NL4-3 [1]; up to 22 μM PA, day 6 (peak of infection)): 95% | tissue toxicity (MTT viability assay) (ectocervix tissue): not toxic to tissue; also recorded: absence of toxicity | IC50 ([2]; Human immunodeficiency virus 1, Macrophage): ~37 µM | inhibition of primary isolate ADA infection ([2]; up to 100 μM PA, day 10 (peak of replication)): 91% | infected cells (X4-tropic NL4-3 [3]; 10 μM PA): 17.46% | infected cells (X4-tropic NL4-3 [3]; 20 μM PA): 15.25% | infected cells (X4-tropic NL4-3 [3]; 40 μM PA): 12.03% | infected cells (X4-tropic NL4-3 [3]; 60 μM PA): 9.62% | infected cells (X4-tropic NL4-3 [3]; 100 μM PA): 5.9% | IC50 (X4-tropic NL4-3 [3]; Human immunodeficiency virus 1, NL43, read-out: mean inhibitory concentration (IC50) for X4 inhibition): ~56 µM | inhibition at 10 µM (X4-tropic NL4-3 [3]; Human immunodeficiency virus 1, NL43, 10 μM PA): 13% | inhibition at 20 µM (X4-tropic NL4-3 [3]; Human immunodeficiency virus 1, NL43, 20 μM PA): 24% | inhibition at 40 µM (X4-tropic NL4-3 [3]; Human immunodeficiency virus 1, NL43, 40 μM PA): 40% | inhibition at 60 µM (X4-tropic NL4-3 [3]; Human immunodeficiency virus 1, NL43, 60 μM PA): 52% | inhibition at 100 µM (X4-tropic NL4-3 [3]; Human immunodeficiency virus 1, NL43, 100 μM PA): 70% | STD-NMR signal on titration into sCD4 solution (sCD4 [4]): binds to sCD4 specifically | Kd (sCD4 [5]): 1.5 ± 0.2 µM | quenching of the sCD4 tryptophan fluorescence (sCD4 [5]; [7]): 30% | red shift of the emission peak (sCD4 [5]; [7]): 2 nm | HIV-1 replication (p24) (HIV-1 R5 BaL; day 4, untreated 943): 604 pg p24/ml | HIV-1 replication (p24) (HIV-1 R5 BaL; day 7, untreated 1421): 960 pg p24/ml | HIV-1 replication (p24) (HIV-1 R5 BaL; day 10, untreated 785): 452 pg p24/ml | HIV-1 infection reduced (HIV-1 R5 BaL; day 4): 38% | HIV-1 infection reduced (HIV-1 R5 BaL; day 10): 43% | inhibition at 100 µM (HIV-1 R5 BaL; 96 h): 36% | inhibition at 100 µM (HIV-1 R5 BaL; 168 h): 32% | inhibition at 100 µM (HIV-1 R5 BaL; 240 h): 42% | inhibition at 0.5 µg/mL ([6]; 0.5 μg/ml): 33.5% | inhibition at 1 µg/mL ([6]; 1 μg/ml): 46.1% | inhibition at 2 µg/mL ([6]; 2 μg/ml): 64.2% | inhibition at 5 µg/mL ([6]; 5 μg/ml): 50.6% | virus-positive cells (BlaM-Vpr-X4-tropic NL4-3; 2 μM PA): 24.6% | virus-positive cells (BlaM-Vpr-X4-tropic NL4-3; 4 μM PA): 19.7% | virus-positive cells (BlaM-Vpr-X4-tropic NL4-3; 8 μM PA): 14.4% | inhibition at 2 µM (BlaM-Vpr-X4-tropic NL4-3; [8]): 34.6% | inhibition at 4 µM (BlaM-Vpr-X4-tropic NL4-3; [8]): 47.8% | inhibition at 8 µM (BlaM-Vpr-X4-tropic NL4-3; [8]): 61.6% | LD50 (uninfected macrophages): 400 µM | mean toxicity lethal dose (LD50) (uninfected PBMCs): ≈ 154 μM | reversal of sCD4 inhibition of infection (NL4-3): completely reversed | infected cells (R5-tropic 81A; 10 μM PA): 44.77% | infected cells (R5-tropic 81A; 20 μM PA): 36.06% | infected cells (R5-tropic 81A; 40 μM PA): 29.88% | infected cells (R5-tropic 81A; 60 μM PA): 22.88% | infected cells (R5-tropic 81A; 100 μM PA): 14.45% | inhibition at 10 µM (R5-tropic 81A; [9]): 15% | inhibition at 20 µM (R5-tropic 81A; [9]): 31% | inhibition at 40 µM (R5-tropic 81A; [9]): 43% | inhibition at 60 µM (R5-tropic 81A; [9]): 56% | inhibition at 100 µM (R5-tropic 81A; [9]): 73% | IC50 (R5-tropic 81A; Human immunodeficiency virus 1, read-out: mean inhibitory concentration (IC50) for R5 inhibition): 51 µM
